Test results taken from PubChem BioAssay (NCI).
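Exposure lasted 48 hours, with cells grown in 96-well plates and compounds tested at five concentrations. GI50 marks 50% less growth. TGI is the concentration that stops growth completely.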

Tests used:
Assay in all cases: NCI anticancer screen, dose series, 48 h
[1] = test system: LOX IMVI melanoma
[2] = test system: SNB-75 CNS
[3] = test system: SK-OV-3 ovarian
[4] = test system: PC-3 prostate
[5] = test system: COLO 205 colon
[6] = test system: KM12 colon
[7] = test system: UO-31 renal
[8] = test system: OVCAR-4 ovarian
[9] = test system: OVCAR-8 ovarian
[10] = test system: IGROV1 ovarian

Compound | GI50 [1] [µM] | TGI [1] [µM] | GI50 [2] [µM] | TGI [2] [µM] | GI50 [3] [µM] | TGI [3] [µM] | GI50 [4] [µM] | TGI [4] [µM] | GI50 [5] [µM] | TGI [5] [µM] | GI50 [6] [µM] | TGI [6] [µM] | GI50 [7] [µM] | TGI [7] [µM] | GI50 [8] [µM] | TGI [8] [µM] | GI50 [9] [µM] | TGI [9] [µM] | GI50 [10] [µM] | TGI [10] [µM]
COC(=O)[C@]12CC[C@@H](C)[C@H](C)[C@@H]1C1=CC[C@@H]3[C@@]4(C)C(C=O)=C[C@@](C)(COC(=O)c5ccco5)C4=CC[C@@]3(C)[C@]1(C)CC2 | 1.7 | 3.15 | 2.47 | 25.5 | 8.41 | 75.1 | 2.97 | > 100 | 0.0247 | 0.0614 | 3.27 | 19.9 | 1.92 | 5.03 | 3.54 | 22.4 | 3.67 | 15.9 | 4.06 | 24.3
COc1ccc(-n2nc(C(=O)NCC(=O)Nc3nc4cc(OC)ccc4s3)c3ccccc3c2=O)cc1 | 0.413 | 1.97 | 0.554 | 2.08 | 1.83 | 4.93 | 1.26 | – | 0.477 | 3.89 | – | – | 2.28 | – | 0.434 | 2.57 | 0.533 | 2 | 1.18 | > 25.3
COc1cc(-c2cn(-c3ccc(F)cc3)c(=O)[nH]2)cc(OC)c1OC | > 100 | > 100 | 55.6 | > 100 | > 100 | > 100 | > 100 | > 100 | > 100 | > 100 | > 100 | > 100 | > 100 | > 100 | > 100 | > 100 | > 100 | > 100 | > 100 | > 100
COC(=O)C(Br)(C(=O)OC)C(Br)C(Br)C(Br)c1ccccc1 (centres undefined) | 1.85 | 3.66 | 2.07 | 7.08 | 16.8 | 31.9 | 4.58 | 17.3 | 1.87 | 3.56 | 7.83 | 21 | 1.64 | 3.3 | 1.82 | 3.96 | 3.03 | 8.15 | 1.06 | 3.45
CCCCc1n(Cc2ccc3ccccc3n2)cc[n+]1Cc1ccc2ccccc2c1 | 0.736 | 1.95 | 0.289 | 1.74 | 1.47 | 4.33 | 0.786 | 2.5 | 0.502 | 1.79 | 0.715 | 2.11 | 3.22 | 13.6 | 0.262 | 1.63 | 1.03 | 3.17 | 0.731 | 2.38
CCN1C(=O)N[C@H]2[C@@H]3NC(=O)c4ccc(Cl)n4[C@@H]3C[C@]21O | 0.279 | 1.3 | 0.663 | 7.63 | 2.07 | 7.56 | 1.68 | 11.2 | 0.369 | 1.56 | 1.06 | 33.7 | 3.19 | 24.1 | 0.571 | 7.99 | 0.533 | 9.01 | 0.471 | 6.46
CCC1C[N+]2=C(c3cc(OC)c(OC)cc3CC2)c2c1cc1n2CCc2cc(OC)c(OC)cc2-1 (centres undefined) | 3.72 | 23.2 | 1.77 | 7.48 | 5.01 | 37.5 | 2.5 | 33.1 | 1.23 | 3.71 | 1.5 | 10.9 | 18.4 | 46.8 | 1.14 | 8.87 | 2.58 | 82.1 | 5.62 | 53.6
CCN1Cc2c(/C=C/c3ccccc3)nc3ccc(OC)cc3c2N(c2cccc(Cl)c2)C1 | 1.7 | 3.51 | 1.8 | 6.1 | 1.88 | 4.4 | 1.79 | 5.64 | 1.59 | 3 | 1.81 | 3.49 | 1.38 | 2.95 | 2.8 | 8.44 | 1.84 | 4.29 | 1.4 | 3.68
C=C(C)C1Cc2cc(C(C)=O)ccc2O1 (centres undefined) | – | > 100 | – | > 100 | – | > 100 | – | > 100 | – | > 100 | – | > 100 | – | > 100 | – | > 100 | – | > 100 | – | > 100
C#CCn1c2c(c3ccccc3c1=O)C(=O)c1ccccc1-2 | – | > 100 | – | 27.4 | – | 73.1 | – | > 100 | – | > 100 | – | > 100 | – | 13.9 | – | 33.1 | – | 82.3 | – | 80.7
C=C(C)[C@@H]1CC[C@]2(COC(=O)c3ccccc3C(=O)O)CC[C@]3(C)[C@H](CC[C@@H]4[C@@]5(C)CC[C@H](OC(=O)c6ccccc6C(=O)O)C(C)(C)[C@@H]5CC[C@]43C)[C@@H]12 | 24.6 | > 100 | 15.4 | 36 | 35.8 | > 100 | 34.6 | > 100 | > 100 | > 100 | 8.47 | > 100 | 32.1 | > 100 | 36.7 | > 100 | 42.6 | > 100 | 33.2 | > 100
COc1ccc(/C=C\c2cc(OC)c(OC)c(OC)c2)cc1N/C=C\C(=O)c1c[nH]c2ccccc12 | < 0.01 | > 100 | < 0.01 | > 100 | < 0.01 | > 100 | < 0.01 | > 100 | < 0.01 | < 0.01 | < 0.01 | 0.0254 | < 0.01 | > 100 | < 0.01 | > 100 | < 0.01 | > 100 | < 0.01 | > 100
CCOc1cc(CCNC)c2c(ccc3ccc(OC)c(O)c32)c1OC | – | 24.2 | – | 32.3 | – | 27.5 | – | 27.6 | – | 42 | – | 26.4 | – | 29.6 | – | 27.2 | – | 29.4 | – | 27.7
COc1ccccc1N1CCN(CC(O)Cn2c(=O)c3c(OC)nc(C)cc3c(=O)n2-c2ccccc2)CC1 (centres undefined) | 30.5 | > 100 | 14.8 | 37.6 | 23.5 | > 100 | 43 | > 100 | > 100 | > 100 | > 100 | > 100 | > 100 | > 100 | > 100 | > 100 | – | – | 41 | > 100
